# Results as given in PMC7265341, “Quantifying CDK inhibitor selectivity in live cells” (Nature Communications, 2020).
# Read-outs that look alike come from different tables or passages of the source.
# How the values were obtained:
# CDK9/Cyclin K = CDK9/Cyclin K (Homo sapiens, UniProt P50750); assay: NanoBRET live-cell target engagement, NanoLuc-CDK9/Cyclin K in HEK-293; assay type: binding; conditions: CDK9/K, 10µM
# CDK20/Cyclin H = CDK20/Cyclin H (Homo sapiens, UniProt Q8IZL9); assay: NanoBRET live-cell target engagement, NanoLuc-CDK20/Cyclin H in HEK-293; assay type: binding; conditions: CDK20/H, 10µM
# CDK15/Cyclin Y = CDK15/Cyclin Y (Homo sapiens, UniProt Q96Q40); assay: NanoBRET live-cell target engagement, NanoLuc-CDK15/Cyclin Y in HEK-293; assay type: binding; conditions: CDK15/Y, 10µM
# CDK15/Cyclin Y, sequence (Q96Q40 whole entry): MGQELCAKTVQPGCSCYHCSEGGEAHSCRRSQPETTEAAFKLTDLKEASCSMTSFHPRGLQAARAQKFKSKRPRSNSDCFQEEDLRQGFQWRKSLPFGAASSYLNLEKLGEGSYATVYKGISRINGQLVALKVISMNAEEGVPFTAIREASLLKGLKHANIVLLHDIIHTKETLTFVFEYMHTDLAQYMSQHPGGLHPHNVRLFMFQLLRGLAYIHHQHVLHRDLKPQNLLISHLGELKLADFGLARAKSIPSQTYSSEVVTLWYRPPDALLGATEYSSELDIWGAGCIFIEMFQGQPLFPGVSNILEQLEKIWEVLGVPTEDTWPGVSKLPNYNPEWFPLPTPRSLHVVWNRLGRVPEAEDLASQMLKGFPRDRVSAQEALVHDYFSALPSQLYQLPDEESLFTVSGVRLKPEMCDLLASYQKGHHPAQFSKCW
# CDK15/Cyclin Y, sequence (Q8ND76 whole entry partner): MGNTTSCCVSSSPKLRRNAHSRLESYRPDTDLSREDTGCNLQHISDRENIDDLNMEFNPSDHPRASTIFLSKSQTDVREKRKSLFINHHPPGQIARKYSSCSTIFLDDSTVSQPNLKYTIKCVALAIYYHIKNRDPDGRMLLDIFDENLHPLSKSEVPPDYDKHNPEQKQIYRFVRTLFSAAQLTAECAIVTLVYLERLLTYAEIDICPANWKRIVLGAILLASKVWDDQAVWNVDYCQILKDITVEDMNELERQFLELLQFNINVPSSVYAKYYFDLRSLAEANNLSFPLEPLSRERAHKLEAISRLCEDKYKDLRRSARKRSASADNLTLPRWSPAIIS
# CDK10/Cyclin L2 = CDK10/Cyclin L2 (Homo sapiens, UniProt Q15131); assay: NanoBRET live-cell target engagement, CDK10-NanoLuc/Cyclin L2 in HEK-293; conditions: 10µM
# CDK1/Cyclin E1 = CDK1/Cyclin E1 (Homo sapiens, UniProt P06493); assay: NanoBRET live-cell target engagement, CDK1-NanoLuc/Cyclin E1 in HEK-293; assay type: binding; conditions: CDK1/E1
# CDK2/Cyclin E1 = CDK2/Cyclin E1 (Homo sapiens, UniProt P24941); assay: NanoBRET live-cell target engagement, CDK2-NanoLuc/Cyclin E1 in HEK-293; assay type: binding; conditions: CDK2/E1
# CDK11B/Cyclin L2 = CDK11B/Cyclin L2 (Homo sapiens, UniProt P21127); assay: NanoBRET live-cell target engagement, CDK11B-NanoLuc/Cyclin L2 in HEK-293; assay type: binding; conditions: CDK11b/L2, 10µM
# CDK11B/Cyclin L2, sequence (P21127 1-782 isoform P21127-2): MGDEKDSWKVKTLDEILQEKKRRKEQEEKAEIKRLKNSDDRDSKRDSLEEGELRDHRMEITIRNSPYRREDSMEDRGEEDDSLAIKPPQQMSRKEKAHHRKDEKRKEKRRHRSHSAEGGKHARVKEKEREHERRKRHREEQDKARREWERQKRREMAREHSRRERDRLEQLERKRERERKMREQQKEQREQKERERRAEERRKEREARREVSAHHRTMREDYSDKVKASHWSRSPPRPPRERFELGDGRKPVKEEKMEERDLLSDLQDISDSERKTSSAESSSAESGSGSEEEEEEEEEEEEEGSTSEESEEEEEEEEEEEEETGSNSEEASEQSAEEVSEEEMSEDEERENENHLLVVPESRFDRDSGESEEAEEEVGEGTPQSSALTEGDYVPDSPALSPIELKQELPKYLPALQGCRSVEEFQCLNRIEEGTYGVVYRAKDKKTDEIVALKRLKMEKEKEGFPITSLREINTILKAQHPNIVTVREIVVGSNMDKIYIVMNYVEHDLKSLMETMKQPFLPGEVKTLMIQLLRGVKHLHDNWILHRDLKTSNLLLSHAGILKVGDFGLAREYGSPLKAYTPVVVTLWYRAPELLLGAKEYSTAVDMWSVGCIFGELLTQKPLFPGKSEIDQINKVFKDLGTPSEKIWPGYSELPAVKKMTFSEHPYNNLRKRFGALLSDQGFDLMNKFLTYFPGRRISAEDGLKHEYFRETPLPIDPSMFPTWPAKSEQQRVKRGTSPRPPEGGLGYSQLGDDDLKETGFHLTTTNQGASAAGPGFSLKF
# CDK7 = CDK7 (Homo sapiens, UniProt P50613); assay: NanoBRET live-cell target engagement, NanoLuc-CDK7 in HEK-293; assay type: binding; conditions: CDK7
# CDK7, sequence (P50613 whole entry): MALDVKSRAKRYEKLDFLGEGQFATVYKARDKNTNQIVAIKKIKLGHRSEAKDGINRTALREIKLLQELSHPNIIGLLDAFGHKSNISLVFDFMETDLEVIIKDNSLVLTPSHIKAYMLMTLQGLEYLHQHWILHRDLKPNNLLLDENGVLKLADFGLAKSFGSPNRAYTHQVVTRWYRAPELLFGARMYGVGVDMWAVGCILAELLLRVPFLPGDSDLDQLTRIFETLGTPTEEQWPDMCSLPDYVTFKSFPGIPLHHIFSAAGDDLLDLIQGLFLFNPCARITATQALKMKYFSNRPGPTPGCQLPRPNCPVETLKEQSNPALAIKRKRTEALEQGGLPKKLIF
# CDK14/Cyclin Y = CDK14/Cyclin Y (Homo sapiens, UniProt O94921); assay: NanoBRET live-cell target engagement, CDK14-NanoLuc/Cyclin Y in HEK-293; assay type: binding; conditions: CDK14/Y
# CDK14/Cyclin Y, sequence (O94921 whole entry): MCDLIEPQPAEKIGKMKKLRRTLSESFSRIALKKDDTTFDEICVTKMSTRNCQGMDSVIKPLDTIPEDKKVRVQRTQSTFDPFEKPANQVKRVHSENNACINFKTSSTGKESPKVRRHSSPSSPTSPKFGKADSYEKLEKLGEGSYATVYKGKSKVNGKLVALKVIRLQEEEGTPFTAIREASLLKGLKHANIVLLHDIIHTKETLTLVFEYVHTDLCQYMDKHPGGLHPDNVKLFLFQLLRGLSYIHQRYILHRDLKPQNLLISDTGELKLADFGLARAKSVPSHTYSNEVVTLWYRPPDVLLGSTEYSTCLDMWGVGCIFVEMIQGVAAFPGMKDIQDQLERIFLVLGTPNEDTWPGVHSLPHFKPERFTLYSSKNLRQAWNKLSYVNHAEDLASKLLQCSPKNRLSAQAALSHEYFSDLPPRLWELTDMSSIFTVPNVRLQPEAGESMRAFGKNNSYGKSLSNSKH
# CDK14/Cyclin Y, sequence (Q8ND76 whole entry partner): as the sequence (Q8ND76 whole entry partner) above
# CDK4/Cyclin D1 = CDK4/Cyclin D1 (Homo sapiens, UniProt P11802); assay: NanoBRET live-cell target engagement, NanoLuc-CDK4/Cyclin D1 in HEK-293; assay type: binding; conditions: CDK4/D1, 10µM
# CDK16/Cyclin Y = CDK16/Cyclin Y (Homo sapiens, UniProt Q00536); assay: NanoBRET live-cell target engagement, CDK16-NanoLuc/Cyclin Y in HEK-293; assay type: binding; conditions: CDK16/Y
# CDK16/Cyclin Y, sequence (Q00536 whole entry): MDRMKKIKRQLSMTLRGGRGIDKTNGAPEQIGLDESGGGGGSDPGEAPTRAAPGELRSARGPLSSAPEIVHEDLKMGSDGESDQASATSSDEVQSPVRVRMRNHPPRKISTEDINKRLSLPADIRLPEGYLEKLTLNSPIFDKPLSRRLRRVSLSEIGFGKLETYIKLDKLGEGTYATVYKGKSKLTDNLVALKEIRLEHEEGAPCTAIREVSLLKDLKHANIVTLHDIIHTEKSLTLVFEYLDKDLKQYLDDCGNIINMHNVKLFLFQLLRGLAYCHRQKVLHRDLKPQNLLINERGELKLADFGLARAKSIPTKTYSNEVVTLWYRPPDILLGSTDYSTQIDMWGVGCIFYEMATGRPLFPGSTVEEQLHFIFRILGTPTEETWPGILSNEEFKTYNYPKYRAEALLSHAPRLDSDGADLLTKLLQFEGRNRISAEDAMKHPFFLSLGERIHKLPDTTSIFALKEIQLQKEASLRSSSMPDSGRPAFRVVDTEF
# CDK16/Cyclin Y, sequence (Q8ND76 whole entry partner): as the sequence (Q8ND76 whole entry partner) above
# CDK5/CDK5R1 = CDK5/CDK5R1 (Homo sapiens, UniProt Q00535); assay: NanoBRET live-cell target engagement, CDK5-NanoLuc/CDK5R1 in HEK-293; assay type: binding; conditions: CDK5/CDK5R1, 10µM
# CDK17/Cyclin Y = CDK17/Cyclin Y (Homo sapiens, UniProt Q00537); assay: NanoBRET live-cell target engagement, CDK17-NanoLuc/Cyclin Y in HEK-293; assay type: binding; conditions: CDK17/Y, 10µM
# CDK17/Cyclin Y, sequence (Q00537 whole entry): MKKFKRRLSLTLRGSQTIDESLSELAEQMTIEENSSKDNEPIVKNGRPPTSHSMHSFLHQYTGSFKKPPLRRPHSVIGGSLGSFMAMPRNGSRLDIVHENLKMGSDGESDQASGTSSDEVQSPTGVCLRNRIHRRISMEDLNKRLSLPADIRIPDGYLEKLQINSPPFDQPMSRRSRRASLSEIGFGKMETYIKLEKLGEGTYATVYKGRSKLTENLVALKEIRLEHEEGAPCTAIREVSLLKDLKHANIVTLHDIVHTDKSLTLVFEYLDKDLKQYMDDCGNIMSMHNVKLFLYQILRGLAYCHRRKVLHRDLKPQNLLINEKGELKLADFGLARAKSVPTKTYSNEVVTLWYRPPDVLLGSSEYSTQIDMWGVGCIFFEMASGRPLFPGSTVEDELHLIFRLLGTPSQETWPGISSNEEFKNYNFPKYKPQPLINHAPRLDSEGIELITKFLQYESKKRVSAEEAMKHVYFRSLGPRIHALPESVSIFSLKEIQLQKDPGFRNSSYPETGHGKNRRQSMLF
# CDK17/Cyclin Y, sequence (Q8ND76 whole entry partner): as the sequence (Q8ND76 whole entry partner) above
# CDK8/Cyclin C = CDK8/Cyclin C (Homo sapiens, UniProt P49336); assay: NanoBRET live-cell target engagement, NanoLuc-CDK8/Cyclin C in HEK-293; assay type: binding
# CDK8/Cyclin C, sequence (P49336 whole entry): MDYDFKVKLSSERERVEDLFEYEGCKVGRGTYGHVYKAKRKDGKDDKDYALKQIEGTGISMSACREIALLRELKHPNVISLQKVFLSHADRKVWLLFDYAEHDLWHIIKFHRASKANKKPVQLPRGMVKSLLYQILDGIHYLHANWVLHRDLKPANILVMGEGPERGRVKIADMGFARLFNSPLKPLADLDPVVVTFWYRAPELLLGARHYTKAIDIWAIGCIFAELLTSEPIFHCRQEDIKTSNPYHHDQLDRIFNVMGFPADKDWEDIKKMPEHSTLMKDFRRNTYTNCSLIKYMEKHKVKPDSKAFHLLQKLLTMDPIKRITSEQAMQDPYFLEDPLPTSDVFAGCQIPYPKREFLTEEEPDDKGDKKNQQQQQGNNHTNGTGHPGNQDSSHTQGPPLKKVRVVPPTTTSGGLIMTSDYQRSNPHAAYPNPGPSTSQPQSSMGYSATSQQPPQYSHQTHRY
# CDK8/Cyclin C, sequence (P24863 whole entry partner): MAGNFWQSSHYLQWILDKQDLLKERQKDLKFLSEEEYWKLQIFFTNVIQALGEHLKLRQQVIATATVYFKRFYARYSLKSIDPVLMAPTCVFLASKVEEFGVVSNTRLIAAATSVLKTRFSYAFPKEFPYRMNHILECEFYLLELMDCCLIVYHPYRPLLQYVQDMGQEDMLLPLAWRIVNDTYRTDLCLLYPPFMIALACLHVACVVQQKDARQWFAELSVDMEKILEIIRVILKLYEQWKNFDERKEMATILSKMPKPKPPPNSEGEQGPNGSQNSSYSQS
# CDK18/Cyclin Y = CDK18/Cyclin Y (Homo sapiens, UniProt Q07002); assay: NanoBRET live-cell target engagement, CDK18-NanoLuc/Cyclin Y in HEK-293; assay type: binding; conditions: CDK18/Y, 10µM
# CDK3/Cyclin E1 = CDK3/Cyclin E1 (Homo sapiens, UniProt Q00526); assay: NanoBRET live-cell target engagement, CDK3-NanoLuc/Cyclin E1 in HEK-293; assay type: binding
# CDK11A/Cyclin L2 = target: T1, CDK11A/Cyclin L2 (Homo sapiens, UniProt Q9UQ88); assay: NanoBRET live-cell target engagement, CDK11A-NanoLuc/Cyclin L2 in HEK-293; assay type: binding; conditions: CDK11a/L2, 10µM
# T1 sequence (Q9UQ88 1-783): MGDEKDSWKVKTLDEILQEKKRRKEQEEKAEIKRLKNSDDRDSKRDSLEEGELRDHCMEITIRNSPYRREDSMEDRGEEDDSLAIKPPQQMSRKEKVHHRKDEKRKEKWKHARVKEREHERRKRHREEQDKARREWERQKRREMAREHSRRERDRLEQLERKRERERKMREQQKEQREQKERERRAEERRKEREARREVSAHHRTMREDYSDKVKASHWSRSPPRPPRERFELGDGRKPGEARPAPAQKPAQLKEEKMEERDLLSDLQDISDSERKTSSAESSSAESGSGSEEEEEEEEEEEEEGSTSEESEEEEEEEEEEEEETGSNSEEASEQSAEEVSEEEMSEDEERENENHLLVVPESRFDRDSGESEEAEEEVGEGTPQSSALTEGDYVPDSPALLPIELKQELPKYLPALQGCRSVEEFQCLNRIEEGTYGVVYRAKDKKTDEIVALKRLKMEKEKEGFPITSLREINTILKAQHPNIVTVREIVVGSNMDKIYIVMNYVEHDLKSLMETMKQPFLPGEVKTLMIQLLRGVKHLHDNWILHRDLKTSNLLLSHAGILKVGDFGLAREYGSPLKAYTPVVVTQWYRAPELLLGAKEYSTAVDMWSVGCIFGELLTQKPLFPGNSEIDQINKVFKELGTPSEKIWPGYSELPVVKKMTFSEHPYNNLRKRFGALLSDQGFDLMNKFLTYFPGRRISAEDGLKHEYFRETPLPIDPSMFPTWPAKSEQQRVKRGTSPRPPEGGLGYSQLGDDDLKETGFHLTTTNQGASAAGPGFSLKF
# CDK6/Cyclin D1 = CDK6/Cyclin D1 (Homo sapiens, UniProt Q00534); assay: NanoBRET live-cell target engagement, NanoLuc-CDK6/Cyclin D1 in HEK-293; assay type: binding; conditions: CDK6/D1
# CDK19/Cyclin C = CDK19/Cyclin C (Homo sapiens, UniProt Q9BWU1); assay: NanoBRET live-cell target engagement, NanoLuc-CDK19/Cyclin C in HEK-293
# CDK19/Cyclin C, sequence (Q9BWU1 whole entry): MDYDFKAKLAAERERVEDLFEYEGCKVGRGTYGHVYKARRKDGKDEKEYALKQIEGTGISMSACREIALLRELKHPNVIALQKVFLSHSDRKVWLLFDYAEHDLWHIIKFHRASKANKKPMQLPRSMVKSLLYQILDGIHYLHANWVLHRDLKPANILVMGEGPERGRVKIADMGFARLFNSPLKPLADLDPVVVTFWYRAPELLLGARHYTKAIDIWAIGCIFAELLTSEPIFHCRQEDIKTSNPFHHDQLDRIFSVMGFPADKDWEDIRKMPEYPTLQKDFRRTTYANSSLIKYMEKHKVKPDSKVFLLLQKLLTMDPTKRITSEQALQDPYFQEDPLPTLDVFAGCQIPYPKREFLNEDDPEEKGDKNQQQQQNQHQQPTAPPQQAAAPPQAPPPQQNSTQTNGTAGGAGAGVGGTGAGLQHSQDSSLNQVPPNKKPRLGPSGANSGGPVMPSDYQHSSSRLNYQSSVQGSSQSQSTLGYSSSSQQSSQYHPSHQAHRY
# CDK19/Cyclin C, sequence (P24863 whole entry partner): as the sequence (P24863 whole entry partner) above
# [1] = average of replicates, read-out: Inhibition at 10µM (%) Average
# [2] = read-out: Inhibition at 10µM (%) Replicate 1
# [3] = read-out: Inhibition at 10µM (%) Replicate 2
# [4] = n=3 average ± SEM, n=2 average to 2 significant figures, read-out: IC50 (nM) Average*
# [5] = read-out: IC50 (nM) Replicate 1
# [6] = read-out: IC50 (nM) Replicate 2
# [7] = read-out: IC50 (nM) Replicate 3
structure (smiles),measurement,setting,value
CCCCOc1c(C(=O)c2c(F)cc(C)cc2F)c[nH]c2nncc1-2 [BMS-265246],inhibition at 10 µM,CDK9/Cyclin K; [1],26.1%
same,inhibition at 10 µM,CDK9/Cyclin K; [2],31%
same,inhibition at 10 µM,CDK9/Cyclin K; [3],21.3%
same,inhibition at 10 µM,CDK20/Cyclin H; [2],14.5%
same,inhibition at 10 µM,CDK20/Cyclin H; [3],-14.1%
same,inhibition at 10 µM,CDK15/Cyclin Y; [1],35.1%
same,inhibition at 10 µM,CDK15/Cyclin Y; [2],51.3%
same,inhibition at 10 µM,CDK15/Cyclin Y; [3],19%
same,inhibition at 10 µM,"CDK10/Cyclin L2; read-out: Inhibition at 10µM (%) Average, CDK10/L2, average of replicates",11.1%
same,inhibition at 10 µM,"CDK10/Cyclin L2; read-out: Inhibition at 10µM (%) Replicate 1, CDK10/L2",5.3%
same,inhibition at 10 µM,"CDK10/Cyclin L2; read-out: Inhibition at 10µM (%) Replicate 2, CDK10/L2",17%
same,inhibition at 10 µM,CDK1/Cyclin E1; [1],44.4%
same,inhibition at 10 µM,CDK1/Cyclin E1; [2],65.6%
same,inhibition at 10 µM,CDK1/Cyclin E1; [3],23.1%
same,IC50,CDK1/Cyclin E1; [4],50 ± 20 nM
same,IC50,CDK1/Cyclin E1; [5],95 nM
same,IC50,CDK1/Cyclin E1; [6],39 nM
same,IC50,CDK1/Cyclin E1; [7],11 nM
same,inhibition at 10 µM,CDK2/Cyclin E1; [1],80.1%
same,inhibition at 10 µM,CDK2/Cyclin E1; [2],77.4%
same,inhibition at 10 µM,CDK2/Cyclin E1; [3],82.8%
same,IC50,CDK2/Cyclin E1; [4],22 ± 8 nM
same,IC50,CDK2/Cyclin E1; [5],29 nM
same,IC50,CDK2/Cyclin E1; [6],31 nM
same,IC50,CDK2/Cyclin E1; [7],6.6 nM
same,inhibition at 10 µM,CDK11B/Cyclin L2; [1],11.8%
same,inhibition at 10 µM,CDK11B/Cyclin L2; [2],9.8%
same,inhibition at 10 µM,CDK11B/Cyclin L2; [3],13.8%
same,inhibition at 10 µM,CDK7; [1],43.7%
same,inhibition at 10 µM,CDK7; [2],21%
same,inhibition at 10 µM,CDK7; [3],66.3%
same,IC50,CDK7; [4],180 ± 10 nM
same,IC50,CDK7; [5],160 nM
same,IC50,CDK7; [6],170 nM
same,IC50,CDK7; [7],197 nM
same,inhibition at 10 µM,CDK14/Cyclin Y; [1],43.5%
same,inhibition at 10 µM,CDK14/Cyclin Y; [2],68.1%
same,inhibition at 10 µM,CDK14/Cyclin Y; [3],18.8%
same,IC50,CDK14/Cyclin Y; [4],200 ± 200 nM
same,IC50,CDK14/Cyclin Y; [5],10 nM
same,IC50,CDK14/Cyclin Y; [6],100 nM
same,IC50,CDK14/Cyclin Y; [7],570 nM
same,inhibition at 10 µM,CDK4/Cyclin D1; [1],49.1%
same,inhibition at 10 µM,CDK4/Cyclin D1; [2],49%
same,inhibition at 10 µM,CDK4/Cyclin D1; [3],49.3%
same,inhibition at 10 µM,CDK16/Cyclin Y; [2],70.8%
same,inhibition at 10 µM,CDK16/Cyclin Y; [3],76.5%
same,IC50,CDK16/Cyclin Y; [4],50 ± 20 nM
same,IC50,CDK16/Cyclin Y; [5],5.7 nM
same,IC50,CDK16/Cyclin Y; [6],63 nM
same,IC50,CDK16/Cyclin Y; [7],79 nM
same,inhibition at 10 µM,CDK5/CDK5R1; [1],35.1%
same,inhibition at 10 µM,CDK5/CDK5R1; [2],36.3%
same,inhibition at 10 µM,CDK5/CDK5R1; [3],33.9%
same,inhibition at 10 µM,CDK17/Cyclin Y; [1],75.2%
same,inhibition at 10 µM,CDK17/Cyclin Y; [2],71.1%
same,inhibition at 10 µM,CDK17/Cyclin Y; [3],79.2%
same,inhibition at 10 µM,"CDK8/Cyclin C; CDK8/C, average of replicates, read-out: Inhibition at 10µM (%) Average",95.1%
same,inhibition at 10 µM,"CDK8/Cyclin C; CDK8/C, read-out: Inhibition at 10µM (%) Replicate 1",97.6%
same,inhibition at 10 µM,"CDK8/Cyclin C; CDK8/C, read-out: Inhibition at 10µM (%) Replicate 2",92.5%
same,IC50,"CDK8/Cyclin C; CDK8/C, read-out: IC50 (nM) Replicate 1",1.2 nM
same,IC50,"CDK8/Cyclin C; CDK8/C, read-out: IC50 (nM) Replicate 2",0.45 nM
same,IC50,"CDK8/Cyclin C; CDK8/C, read-out: IC50 (nM) Replicate 3",0.5 nM
same,IC50,"CDK8/Cyclin C; live HEK-293, 2 h, mean ± S.E.M. (n=3) or mean (n=2), read-out: IC50 for CDK/cyclin complexes, CDK8/C",0.7 nM
same,Kd,"CDK8/Cyclin C; live HEK-293, read-out: Kd-apparent, CDK8 live-cell occupancy",< 0.002 µM
same,inhibition at 10 µM,CDK18/Cyclin Y; [1],89.2%
same,inhibition at 10 µM,CDK18/Cyclin Y; [2],86.5%
same,inhibition at 10 µM,CDK18/Cyclin Y; [3],92%
same,inhibition at 10 µM,"CDK3/Cyclin E1; CDK3/E1, average of replicates, read-out: Inhibition at 10µM (%) Average",74%
same,inhibition at 10 µM,"CDK3/Cyclin E1; CDK3/E1, read-out: Inhibition at 10µM (%) Replicate 1",81.9%
same,inhibition at 10 µM,"CDK3/Cyclin E1; CDK3/E1, read-out: Inhibition at 10µM (%) Replicate 2",66%
same,IC50,"CDK3/Cyclin E1; CDK3/E1, read-out: IC50 (nM) Replicate 1",6.5 nM
same,IC50,"CDK3/Cyclin E1; CDK3/E1, read-out: IC50 (nM) Replicate 2",14 nM
same,IC50,"CDK3/Cyclin E1; CDK3/E1, read-out: IC50 (nM) Replicate 3",9.2 nM
same,IC50,"CDK3/Cyclin E1; live HEK-293, 2 h, mean ± S.E.M. (n=3) or mean (n=2), read-out: IC50 for CDK/cyclin complexes, CDK3/E1",10 nM
same,inhibition at 10 µM,CDK11A/Cyclin L2; [1],8.4%
same,inhibition at 10 µM,CDK11A/Cyclin L2; [2],3.6%
same,inhibition at 10 µM,CDK11A/Cyclin L2; [3],13.2%
same,inhibition at 10 µM,CDK6/Cyclin D1; [1],68%
same,inhibition at 10 µM,CDK6/Cyclin D1; [2],64.1%
same,inhibition at 10 µM,CDK6/Cyclin D1; [3],71.8%
same,IC50,CDK6/Cyclin D1; [4],100 ± 30 nM
same,IC50,CDK6/Cyclin D1; [5],63 nM
same,IC50,CDK6/Cyclin D1; [6],70 nM
same,IC50,CDK6/Cyclin D1; [7],152 nM
same,Kd,CDK19/Cyclin C,< 0.002 µM
same,IC50,"CDK19/Cyclin C; IC50 (nM) Average*, CDK19/Y, n=3 average ± SEM, n=2 average to 2 significant figures",1.47 ± 0.09 nM
same,IC50,"CDK19/Cyclin C; IC50 (nM) Replicate 2, CDK19/C",1.6 nM
same,IC50,"CDK19/Cyclin C; IC50 (nM) Replicate 3, CDK19/C",1.3 nM
same,IC50,"CDK19/Cyclin C; IC50 for CDK/cyclin complexes, CDK19/C, live HEK-293, 2 h, mean ± S.E.M. (n=3) or mean (n=2)",1.5 nM
same,inhibition at 10 µM,"CDK19/Cyclin C; read-out: Inhibition at 10µM (%) Average, CDK19/C, average of replicates",95.1%
same,inhibition at 10 µM,"CDK19/Cyclin C; read-out: Inhibition at 10µM (%) Replicate 1, CDK19/C",98.1%
same,inhibition at 10 µM,"CDK19/Cyclin C; read-out: Inhibition at 10µM (%) Replicate 2, CDK19/C",92.2%
